In PubChem BioAssay (NCI):
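48-hour exposure; five concentrations; linearly interpolated endpoints. Definition used: TGI = concentration required for complete inhibition of growth.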

What was measured:
Experiment in all cases: DTP human tumour cell line panel, 48 h
786-0 renal = system: 786-0 renal
A498 renal = system: A498 renal
A549 NSCLC = system: A549 NSCLC
ACHN renal = system: ACHN renal
BT-549 breast = system: BT-549 breast
CAKI-1 renal = system: CAKI-1 renal
CCRF-CEM leukemia = system: CCRF-CEM leukemia
COLO 205 colon = system: COLO 205 colon
DU-145 prostate = system: DU-145 prostate
EKVX NSCLC = system: EKVX NSCLC
HCC-2998 colon = system: HCC-2998 colon
HCT-116 colon = system: HCT-116 colon
HCT-15 colon = system: HCT-15 colon
HL-60(TB) leukemia = system: HL-60(TB) leukemia
HOP-62 NSCLC = system: HOP-62 NSCLC
HOP-92 NSCLC = system: HOP-92 NSCLC
HS 578T breast = system: HS 578T breast
HT29 colon = system: HT29 colon
IGROV1 ovarian = system: IGROV1 ovarian
K-562 leukemia = system: K-562 leukemia
KM12 colon = system: KM12 colon
LOX IMVI melanoma = system: LOX IMVI melanoma
MALME-3M melanoma = system: MALME-3M melanoma
MCF7 breast = system: MCF7 breast
MDA-MB-231 breast = system: MDA-MB-231 breast
MDA-MB-435 = system: MDA-MB-435
MDA-N = system: MDA-N
MOLT-4 leukemia = system: MOLT-4 leukemia
NCI-H226 lung = system: NCI-H226 lung
NCI-H23 lung = system: NCI-H23 lung
NCI-H460 lung = system: NCI-H460 lung
NCI-H522 lung = system: NCI-H522 lung
NCI/ADR-RES ovarian = system: NCI/ADR-RES ovarian
OVCAR-3 ovarian = system: OVCAR-3 ovarian
OVCAR-4 ovarian = system: OVCAR-4 ovarian
OVCAR-5 ovarian = system: OVCAR-5 ovarian
OVCAR-8 ovarian = system: OVCAR-8 ovarian
PC-3 prostate = system: PC-3 prostate
RPMI-8226 leukemia = system: RPMI-8226 leukemia
RXF 393 renal = system: RXF 393 renal
SF-268 CNS = system: SF-268 CNS
SF-295 CNS = system: SF-295 CNS
SF-539 CNS = system: SF-539 CNS
SK-MEL-2 melanoma = system: SK-MEL-2 melanoma
SK-MEL-28 melanoma = system: SK-MEL-28 melanoma
SK-MEL-5 melanoma = system: SK-MEL-5 melanoma
SK-OV-3 ovarian = system: SK-OV-3 ovarian
SN12C renal = system: SN12C renal
SNB-75 CNS = system: SNB-75 CNS
SW-620 colon = system: SW-620 colon
T-47D breast = system: T-47D breast
TK-10 renal = system: TK-10 renal
U251 CNS = system: U251 CNS
UACC-257 melanoma = system: UACC-257 melanoma
UACC-62 melanoma = system: UACC-62 melanoma
UO-31 renal = system: UO-31 renal
M14 melanoma = system: M14 melanoma
SNB-19 CNS = system: SNB-19 CNS

## Nc1nc(Cl)cc(NCC2CC(O)(CO)C2)n1 (configuration not stated)
786-0 renal
  TGI: > 100 µM
A498 renal
  TGI: > 100 µM
A549 NSCLC
  TGI: > 100 µM
ACHN renal
  TGI: > 100 µM
BT-549 breast
  TGI: > 100 µM
CAKI-1 renal
  TGI: > 100 µM
CCRF-CEM leukemia
  TGI: > 100 µM
COLO 205 colon
  TGI: > 100 µM
DU-145 prostate
  TGI: > 100 µM
EKVX NSCLC
  TGI: > 100 µM
HCC-2998 colon
  TGI: > 100 µM
HCT-116 colon
  TGI: > 100 µM
HCT-15 colon
  TGI: > 100 µM
HL-60(TB) leukemia
  TGI: > 100 µM
HOP-62 NSCLC
  TGI: > 100 µM
HOP-92 NSCLC
  TGI: > 100 µM
HS 578T breast
  TGI: > 100 µM
HT29 colon
  TGI: > 100 µM
IGROV1 ovarian
  TGI: > 100 µM
K-562 leukemia
  TGI: > 100 µM
KM12 colon
  TGI: > 100 µM
LOX IMVI melanoma
  TGI: > 100 µM
MALME-3M melanoma
  TGI: > 100 µM
MCF7 breast
  TGI: > 100 µM
MDA-MB-231 breast
  TGI: > 100 µM
MDA-MB-435
  TGI: > 100 µM
MDA-N
  TGI: > 100 µM
MOLT-4 leukemia
  TGI: > 100 µM
NCI-H226 lung
  TGI: > 100 µM
NCI-H23 lung
  TGI: > 100 µM
NCI-H460 lung
  TGI: > 100 µM
NCI-H522 lung
  TGI: > 100 µM
NCI/ADR-RES ovarian
  TGI: > 100 µM
OVCAR-3 ovarian
  TGI: > 100 µM
OVCAR-4 ovarian
  TGI: > 100 µM
OVCAR-5 ovarian
  TGI: > 100 µM
OVCAR-8 ovarian
  TGI: > 100 µM
PC-3 prostate
  TGI: > 100 µM
RPMI-8226 leukemia
  TGI: > 100 µM
RXF 393 renal
  TGI: > 100 µM
SF-268 CNS
  TGI: > 100 µM
SF-295 CNS
  TGI: > 100 µM
SF-539 CNS
  TGI: > 100 µM
SK-MEL-2 melanoma
  TGI: > 100 µM
SK-MEL-28 melanoma
  TGI: > 100 µM
SK-MEL-5 melanoma
  TGI: > 100 µM
SK-OV-3 ovarian
  TGI: > 100 µM
SN12C renal
  TGI: > 100 µM
SNB-75 CNS
  TGI: > 100 µM
SW-620 colon
  TGI: > 100 µM
T-47D breast
  TGI: > 100 µM
TK-10 renal
  TGI: > 100 µM
U251 CNS
  TGI: > 100 µM
UACC-257 melanoma
  TGI: > 100 µM
UACC-62 melanoma
  TGI: > 100 µM
UO-31 renal
  TGI: > 100 µM

## CC1CC/C(=C\c2ccc(F)cc2)C2=C1C(c1ccc(F)cc1)NC(=S)N2 (configuration not stated)
786-0 renal
  TGI: > 100 µM
A498 renal
  TGI: 98.7 µM
ACHN renal
  TGI: > 100 µM
BT-549 breast
  TGI: > 100 µM
CAKI-1 renal
  TGI: > 100 µM
CCRF-CEM leukemia
  TGI: > 100 µM
COLO 205 colon
  TGI: > 100 µM
DU-145 prostate
  TGI: > 100 µM
EKVX NSCLC
  TGI: 79.3 µM
HCT-116 colon
  TGI: > 100 µM
HCT-15 colon
  TGI: > 100 µM
HL-60(TB) leukemia
  TGI: > 100 µM
HS 578T breast
  TGI: > 100 µM
HT29 colon
  TGI: > 100 µM
IGROV1 ovarian
  TGI: > 100 µM
K-562 leukemia
  TGI: > 100 µM
KM12 colon
  TGI: > 100 µM
LOX IMVI melanoma
  TGI: > 100 µM
M14 melanoma
  TGI: > 100 µM
MALME-3M melanoma
  TGI: 87.3 µM
MCF7 breast
  TGI: > 100 µM
MDA-MB-231 breast
  TGI: > 100 µM
MDA-MB-435
  TGI: > 100 µM
MDA-N
  TGI: > 100 µM
MOLT-4 leukemia
  TGI: > 100 µM
NCI-H226 lung
  TGI: > 100 µM
NCI-H23 lung
  TGI: > 100 µM
NCI-H460 lung
  TGI: > 100 µM
NCI/ADR-RES ovarian
  TGI: > 100 µM
OVCAR-3 ovarian
  TGI: > 100 µM
OVCAR-8 ovarian
  TGI: > 100 µM
PC-3 prostate
  TGI: > 100 µM
RPMI-8226 leukemia
  TGI: > 100 µM
RXF 393 renal
  TGI: > 100 µM
SF-268 CNS
  TGI: > 100 µM
SF-295 CNS
  TGI: > 100 µM
SF-539 CNS
  TGI: > 100 µM
SK-MEL-2 melanoma
  TGI: > 100 µM
SK-MEL-28 melanoma
  TGI: > 100 µM
SK-MEL-5 melanoma
  TGI: > 100 µM
SK-OV-3 ovarian
  TGI: > 100 µM
SN12C renal
  TGI: > 100 µM
SNB-19 CNS
  TGI: > 100 µM
SW-620 colon
  TGI: > 100 µM
T-47D breast
  TGI: 70.8 µM
TK-10 renal
  TGI: > 100 µM
U251 CNS
  TGI: > 100 µM
UACC-257 melanoma
  TGI: > 100 µM
UACC-62 melanoma
  TGI: > 100 µM
UO-31 renal
  TGI: > 100 µM

## Cc1cc(S(=O)(=O)Nc2n[nH]c(N)n2)c(S)cc1Cl
786-0 renal
  TGI: > 10 µM
A498 renal
  TGI: > 10 µM
A549 NSCLC
  TGI: > 10 µM
ACHN renal
  TGI: > 10 µM
BT-549 breast
  TGI: > 10 µM
CAKI-1 renal
  TGI: > 10 µM
CCRF-CEM leukemia
  TGI: > 10 µM
COLO 205 colon
  TGI: > 10 µM
DU-145 prostate
  TGI: > 10 µM
EKVX NSCLC
  TGI: > 10 µM
HCC-2998 colon
  TGI: > 10 µM
HCT-116 colon
  TGI: > 10 µM
HCT-15 colon
  TGI: > 10 µM
HL-60(TB) leukemia
  TGI: > 10 µM
HOP-62 NSCLC
  TGI: > 10 µM
HS 578T breast
  TGI: > 10 µM
HT29 colon
  TGI: > 10 µM
IGROV1 ovarian
  TGI: > 10 µM
K-562 leukemia
  TGI: > 10 µM
KM12 colon
  TGI: > 10 µM
LOX IMVI melanoma
  TGI: > 10 µM
M14 melanoma
  TGI: > 10 µM
MALME-3M melanoma
  TGI: > 10 µM
MCF7 breast
  TGI: > 10 µM
MDA-MB-231 breast
  TGI: > 10 µM
MDA-MB-435
  TGI: > 10 µM
MDA-N
  TGI: > 10 µM
MOLT-4 leukemia
  TGI: > 10 µM
NCI-H226 lung
  TGI: > 10 µM
NCI-H23 lung
  TGI: > 10 µM
NCI-H460 lung
  TGI: > 10 µM
NCI-H522 lung
  TGI: > 10 µM
NCI/ADR-RES ovarian
  TGI: > 10 µM
OVCAR-3 ovarian
  TGI: > 10 µM
OVCAR-4 ovarian
  TGI: > 10 µM
OVCAR-5 ovarian
  TGI: > 10 µM
OVCAR-8 ovarian
  TGI: > 10 µM
PC-3 prostate
  TGI: > 10 µM
RPMI-8226 leukemia
  TGI: > 10 µM
RXF 393 renal
  TGI: > 10 µM
SF-268 CNS
  TGI: > 10 µM
SF-295 CNS
  TGI: > 10 µM
SF-539 CNS
  TGI: > 10 µM
SK-MEL-2 melanoma
  TGI: > 10 µM
SK-MEL-28 melanoma
  TGI: > 10 µM
SK-MEL-5 melanoma
  TGI: > 10 µM
SK-OV-3 ovarian
  TGI: > 10 µM
SN12C renal
  TGI: > 10 µM
SNB-19 CNS
  TGI: > 10 µM
SNB-75 CNS
  TGI: > 10 µM
SW-620 colon
  TGI: > 10 µM
T-47D breast
  TGI: > 10 µM
TK-10 renal
  TGI: > 10 µM
U251 CNS
  TGI: > 10 µM
UACC-257 melanoma
  TGI: > 10 µM
UACC-62 melanoma
  TGI: > 10 µM
